Measured values: patent US6184209A, “Diabetes treatment” (Alizyme Therapeutics Limited, priority 1996, dated 2001)
Where a SMILES comes first, the peptide text is derived from it.

Legend:
EDL muscles--female mice = test: 2-deoxy-D-[1-3H]glucose uptake into EDL muscles, female mice; format: cell-based; conditions: 10^-7 M; for increase in the uptake of 2-deoxy-D-glucose into the muscles (%): normal female mice
Procedure: (§1) Isolated soleus, EDL (extensor digitorum longus) or diaphragm muscles of normal male and female mice were incubated for 30 min at 37° C. in oxygenated Krebs buffer containing 2-deoxy-D-[1-^3 H]glucose. 2-Deoxy-D-glucose is a derivative of D-glucose which is taken up into muscle by carrier-mediated transport and which accumulates in muscle as 2-deoxy-D-glucose-6-phosphate without further metabolism. The tritiated derivative can therefore be used to determine the uptake into muscle of D-glucose (which itself is metabolised). A COOH-terminal (C-terminal) fragment of β-endorphin and an analogue of a β-endorphin fragment were added to the Krebs buffer. These were the C-terminal dipeptide (glycyl-L-glutamine or glycyl-L-glutamic acid) and CH3 CO-Lys-D-Lys-Sar-Glu, a stable analogue of the C-terminal tetrapeptide of β-endorphin. Pyruvate (2 mM) and 2% bovine serum albumen were also present in the bathing medium surrounding the muscles. The extracellular space in the muscles was determined by including L-[1-^14 C] glucose, which is not transported into muscle via the D-glucose membrane carrier.
(§2) At the end of the incubation period, the tissue samples were digested in 1 M NaOH at 90° C. and the radioactivity counted by liquid scintillation counting.
d) EDL muscles--female mice
Following the procedure outlined in Example 1, it was shown that Gly-Gin in a concentration of 10^-7 M caused a 180% increase in 2-deoxy-D-glucoseuptake in EDL muscles of normal female mice, whilst with Gly-Glu there was an 80% increase.

urodele limb = conditions: in vivo; cited from earlier work
dopamine-depleted rats = conditions: rat, in vivo; cited from earlier work
[1] = tested on: Isolated soleus muscles--male mice; test: 2-deoxy-D-[1-3H]glucose uptake into isolated soleus muscles, male mice; format: cell-based; conditions: 10^-9 M
Procedure: as §1, §2
a) Isolated soleus muscles--male mice

EDL muscles--male mice = test: 2-deoxy-D-[1-3H]glucose uptake into EDL muscles, male mice; format: cell-based; conditions: 10^-9 M
Procedure: as §1, §2
c) EDL muscles--male mice

[2] = tested on: Isolated soleus muscles--female mice; test: 2-deoxy-D-[1-3H]glucose uptake into isolated soleus muscles, female mice; format: cell-based; conditions: 10^-8 M
Procedure: as §1, §2
b) Isolated soleus muscles--female mice

[3] = tested on: Diaphragm muscles--female mice; test: 2-deoxy-D-[1-3H]glucose uptake into diaphragm muscles, female mice; format: cell-based; conditions: 10^-8 M
Procedure: as §1, §2
e) Diaphragm muscles--female mice

[4] = tested on: subjects with non-insulin dependent diabetes mellitus (type II); conditions: type II diabetics, cited from earlier work
[5] = 2.5 mg by intravenous bolus injection

## NCC(=O)N[C@@H](CCC(N)=O)C(=O)O [Gly-Gin, glycyl-L-glutamine] (H-Gly-Gln-OH)
EDL muscles--female mice
  increase in the uptake of 2-deoxy-D-glucose into the muscles (%): 180%

## NCC(=O)N[C@@H](CCC(=O)O)C(=O)O [Gly-Glu, glycyl-L-glutamic acid] (H-Gly-Glu-OH)
EDL muscles--female mice
  increase in the uptake of 2-deoxy-D-glucose into the muscles (%): 80%

## Lys-Lys-Gly-Glu (KKGE; printed: Lys-Lys-Gly-Glu) [MPF]
Urodele limb
  urodele limb regeneration: promoting
dopamine-depleted rats
  turning response of dopamine-depleted rats to D-amphetamine: significant reductions

## insulin
[1]
  increase in the uptake of 2-deoxy-D-glucose into the muscles (%): 500%
  increase in the uptake of 2-deoxy-D-glucose into the muscles (fold): 6 fold
EDL muscles--male mice
  increase in the uptake of 2-deoxy-D-glucose into the muscles (%): 150%
  increase in the uptake of 2-deoxy-D-glucose into the muscles (fold): 2.5 fold
[2]
  increase in the uptake of 2-deoxy-D-glucose into the muscles (%): ~100%
  increase in the uptake of 2-deoxy-D-glucose into the muscles (fold): approximately 2 fold
EDL muscles--female mice; female mice
  increase in the uptake of 2-deoxy-D-glucose into the muscles (fold): 3.5 fold
EDL muscles--female mice
  increase in the uptake of 2-deoxy-D-glucose into the muscles (%): 250%
[3]
  increase in the uptake of 2-deoxy-D-glucose into the muscles (fold): similar

## β-endorphin (YGGFMTSEKSQTPLVTLFKNAIIKNAYKKGE; Beta-endorphin; UniProt P01189 237-267, looked up) [human β-endorphin]
[4]; [5]
  duration of increments in plasma insulin and glucagon: up to 90 minutes
  plasma concentrations of insulin and glucagon: prompt and simultaneous increments
[4]; administration one hour after start of three hour study period
  progressive decline in plasma glucose: effect of administration: substantially unaffected
